Key:
Experiment in all cases: relative viability (nuclei count vs DMSO), 5 days (fraction); higher = more cells survive
[1] = compound: CC(C)N(CCCNC(=O)Nc1ccc(C(C)(C)C)cc1)C[C@H]1O[C@@H](n2ccc3c(N)ncnc32)[C@H](O)[C@@H]1O + CS(=O)(=O)N1CCN(Cc2cc3nc(-c4cccc5[nH]ncc45)nc(N4CCOCC4)c3s2)CC1 [Pictilisib] (partner 1 µM)
How it was run: (§1)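 Relative viability was taken as the ratio of nuclei in treated wells to nuclei in vehicle wells. Lung cancer cell lines in 1536-well plates received compounds by pin tool one day after seeding, either one drug alone or a fixed anchor-drug dose plus five library-drug doses (not always all listed) in √10 steps. Nuclei were counted on 4× images after 5 days of treatment, and values are medians of duplicate plates.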

[2] = compound: CC(C)N(CCCNC(=O)Nc1ccc(C(C)(C)C)cc1)C[C@H]1O[C@@H](n2ccc3c(N)ncnc32)[C@H](O)[C@@H]1O + CC(=O)Nc1cccc(-n2c(=O)n(C3CC3)c(=O)c3c(Nc4ccc(I)cc4F)n(C)c(=O)c(C)c32)c1 [Trametinib] (partner 0.02 µM)
How it was run: as §1

[3] = compound: CC(C)N(CCCNC(=O)Nc1ccc(C(C)(C)C)cc1)C[C@H]1O[C@@H](n2ccc3c(N)ncnc32)[C@H](O)[C@@H]1O + O=C(CCCCCCC(=O)Nc1ccccc1)NO [Vorinostat] (partner 1 µM)
How it was run: as §1

Shikonin + Phenformin = compound: CC(C)=CC[C@@H](O)C1=CC(=O)c2c(O)ccc(O)c2C1=O [Shikonin] + N=C(N)NC(=N)NCCc1ccccc1 [Phenformin] (partner 250 µM)
How it was run: as §1

Cell Line | relative viability ([1]; first compound 0.08 µM) | relative viability ([1]; first compound 0.253 µM) | relative viability ([1]; first compound 0.8 µM) | relative viability ([1]; first compound 2.53 µM) | relative viability ([1]; first compound 8 µM) | relative viability ([2]; first compound 0.08 µM) | relative viability ([2]; first compound 0.253 µM) | relative viability ([2]; first compound 0.8 µM) | relative viability ([2]; first compound 2.53 µM) | relative viability ([2]; first compound 8 µM) | relative viability ([3]; first compound 0.08 µM) | relative viability ([3]; first compound 0.253 µM) | relative viability ([3]; first compound 0.8 µM) | relative viability ([3]; first compound 2.53 µM) | relative viability ([3]; first compound 8 µM) | relative viability (Shikonin + Phenformin; first compound 0.01 µM) | relative viability (Shikonin + Phenformin; first compound 0.1 µM) | relative viability (Shikonin + Phenformin; first compound 0.3162 µM) | relative viability (Shikonin + Phenformin; first compound 1 µM)
NCI-H2170 | 0.36 | 0.262 | 0.336 | 0.372 | 0.323 | 0.965 | 0.912 | 0.862 | 0.866 | 0.914 | 0.811 | 0.681 | 0.807 | 0.83 | 0.688 | 0.399 | 0.445 | 0.449 | 0.431
NCI-H2228 | 0.483 | – | 0.462 | 0.478 | 0.28 | 0.631 | 0.375 | 0.388 | 0.52 | 0.526 | 0.593 | 0.703 | 0.543 | 0.556 | 0.702 | 0.31 | 0.287 | 0.283 | 0.289
NCI-H2347 | 0.45 | 0.546 | 0.661 | 0.582 | 0.842 | 0.248 | 0.281 | 0.251 | 0.284 | 0.282 | 0.54 | 0.537 | 0.458 | 0.608 | 0.546 | 0.488 | 0.384 | 0.31 | 0.313
NCI-H2405 | 0.506 | – | 0.358 | 0.46 | 0.429 | 0.669 | 0.591 | 0.598 | 0.765 | 0.644 | 1.06 | 0.969 | 0.928 | 1.07 | 0.92 | 0.391 | 0.398 | 0.427 | 0.396
NCI-H3122 | 0.653 | 0.576 | 0.634 | 0.493 | 0.553 | 0.242 | 0.299 | 0.202 | 0.242 | 0.247 | 0.957 | 1.2 | 0.894 | 0.991 | 0.921 | 0.391 | 0.417 | 0.391 | 0.399
PC-3 [JPC-3] | 0.757 | 0.677 | 0.658 | 0.656 | 0.727 | 0.664 | 0.722 | – | 0.715 | 0.683 | 0.813 | 0.761 | – | 0.741 | 0.695 | 0.488 | 0.231 | 0.477 | 0.428
PC-14 | 0.657 | 0.528 | 0.795 | 0.882 | 0.57 | 0.648 | 0.701 | 0.842 | 0.718 | 0.558 | 0.71 | 0.722 | 0.624 | 0.702 | 0.561 | 0.587 | 0.619 | 0.597 | 0.637
RERF-LC-KJ | 0.597 | 0.511 | 0.525 | 0.493 | 0.501 | 0.902 | 0.938 | 0.815 | 0.911 | 0.783 | 0.638 | 0.741 | 0.551 | 0.742 | 0.707 | 0.374 | 0.433 | 0.505 | 0.36
SK-LU-1 | 0.593 | 0.506 | 0.621 | 0.662 | 0.538 | 0.567 | 0.469 | 0.513 | 0.501 | 0.428 | 0.742 | 0.775 | 0.87 | 0.87 | 0.736 | 0.522 | 0.648 | 0.596 | 0.524
SK-MES-1 | 0.359 | 0.363 | 0.304 | 0.33 | 0.342 | 0.537 | 0.63 | 0.589 | 0.553 | 0.537 | 1.04 | 1.13 | 0.867 | 1.1 | 1.06 | 0.747 | 0.677 | 0.72 | 0.638
SW 1573 | 0.656 | 0.438 | 0.546 | 0.55 | 0.585 | 0.591 | 0.565 | 0.588 | 0.67 | 0.559 | 0.596 | 0.666 | 0.648 | 0.893 | 0.886 | 0.389 | 0.388 | 0.325 | 0.122
UMC-11 | 0.683 | 0.662 | 0.783 | 0.805 | 0.745 | 0.691 | 0.541 | 0.588 | 0.789 | 0.796 | 0.357 | 0.419 | 0.431 | 0.35 | 0.386 | 0.337 | 0.329 | 0.348 | 0.331

Source: the supplement of paper PMC10307832
